Data: CN103910677A, “紫堇定碱衍生物的盐” (Shanghai Yizhi Pharmaceutical Technology Co Ltd, priority 2013, dated 2014)

Assay: Stability in aqueous solution (extent of free base precipitation from an aqueous solution of the test compound)
Type: physicochemical
Settings: known temperature and known period (not specified), 富马酸盐

In the case of `COc1cc2c3c(c1O)-c1c(ccc(OC)c1OC)C[C@@H]3N(C)CC2` [Ⅱˉ表示的富马酸根的式(Ⅲ)化合物, 紫堇定碱富马酸盐], the aqueous solution stability is reported as “特别稳定 and 异常的稳定”.
